# Molecular target: LSD-1 enzyme (Homo sapiens (Human), UniProt O60341)
# Experiment: LANCE LSD1/KDM1A demethylase assay (LSD1 histone demethylase biochemical assay)
# Conditions: 1 nM LSD-1 enzyme, 1 hour preincubation at 25° C., 0.4 μM Biotin-labeled Histone H3 peptide substrate
# Experimental: LSD1 Histone Demethylase Biochemical Assay
# LANCE LSD1/KDM1A demethylase assay-10 μL of 1 nM LSD-1 enzyme (ENZO BML-SE544-0050) in the assay buffer (50 mM Tris, pH 7.5, 0.01% Tween-20, 25 mM NaCl, 5 mM DTT) were preincubated for 1 hour at 25° C. with 0.8 μL compound/DMSO dotted in black 384 well polystyrene plates. […] Reactions were stopped by addition of 10 μL 1× LANCE Detection Buffer (PerkinElmer CR97-100) supplemented with 1.5 nM Eu-anti-unmodified H3K4 Antibody (PerkinElmer TRF0404), and 225 nM LANCE Ultra Streptavidin (PerkinElmer TRF102) along with 0.9 mM Tranylcypromine-HCl (Millipore 616431). After stopping the reactions plates were incubated for 30 minutes and read on a PHERAstar FS plate reader (BMG Labtech).
row,Structure (SMILES),IC50
1,"CN(C)C1CCN(c2nc(-c3ccc(C#N)cc3)c(-c3ccc4c(c3)CC(O)C4)n3cncc23)CC1 (racemic) [Example 136, 4-[8-[4-(dimethylamino)piperidin-1-yl]-5-(2-hydroxy-2,3-dihydro-1H-inden-5-yl)imidazo[1,5-a]pyrazin-6-yl]benzonitrile]",≤ 50 nM
2,"Cc1ccc(-c2c(-c3ccc(C#N)cc3)cc(OC[C@@H]3CCNC3)c3cncn23)cc1 [Example 1, 4-{5-(4-methylphenyl)-8-[(3R)-pyrrolidin-3-ylmethoxy]imidazo[1,5-a]pyridin-6-yl}benzonitrile]",≤ 50 nM
3,"Cc1ccc(-c2c(-c3ccc([N+](=O)[O-])cc3)cc(OC[C@@H]3CCNC3)c3cncn23)cc1 [Example 3, 5-(4-methylphenyl)-6-(4-nitrophenyl)-8-[(3R)-pyrrolidin-3-ylmethoxy]imidazo[1,5-a]pyridine]",≤ 50 nM
4,"Cc1ccc(-c2c(-c3ccc(C#N)c(F)c3)cc(OC[C@@H]3CCNC3)c3cncn23)cc1 [Example 4, 2-fluoro-4-{5-(4-methylphenyl)-8-[(3R)-pyrrolidin-3-ylmethoxy]imidazo[1,5-a]pyridin-6-yl}benzonitrile]",≤ 50 nM
5,"Cc1ccc(-c2c(-c3ccc(C#N)cc3F)cc(OC[C@@H]3CCNC3)c3cncn23)cc1 [Example 5, 3-fluoro-4-{5-(4-methylphenyl)-8-[(3R)-pyrrolidin-3-ylmethoxy]imidazo[1,5-a]pyridin-6-yl}benzonitrile]",≤ 50 nM
6,"Cc1ccc(-c2c(-c3ccc(C#N)cc3)cc(OC[C@@H]3CCNC3)c3cncn23)c(F)c1 [Example 8, 4-{5-(2-fluoro-4-methylphenyl)-8-[(3R)-pyrrolidin-3-ylmethoxy]imidazo[1,5-a]pyridin-6-yl}benzonitrile]",≤ 50 nM
7,"CCC1CC=C(c2c(-c3ccc(C#N)cc3)cc(OC[C@@H]3CCNC3)c3cncn23)CC1 (stereo partly drawn) [Example 9, 4-{5-(4-ethylcyclohex-1-en-1-yl)-8-[(3R)-pyrrolidin-3-ylmethoxy]imidazol[1,5-a]pyridin-6-yl}benzonitrile]",≤ 50 nM
8,"Cn1ncc2cc(-c3c(-c4ccc(C#N)cc4)cc(OC[C@@H]4CCNC4)c4cncn34)ccc21 [Example 11, 4-{5-(1-methyl-1H-indazol-5-yl)-8-[(3R)-pyrrolidin-3-ylmethoxy]imidazo[1,5-a]pyridin-6-yl}benzonitrile]",≤ 50 nM
9,"CN1C(=O)Cc2cc(-c3c(-c4ccc(C#N)cc4)cc(OC[C@@H]4CCNC4)c4cncn34)ccc21 [Example 12, 4-{5-(1-methyl-2-oxo-2,3-dihydro-1H-indol-5-yl)-8-[(3R)-pyrrolidin-3-ylmethoxy]imidazo-[1,5-a]pyridin-6-yl}benzonitrile]",≤ 50 nM
10,"CN1CCOc2cc(-c3c(-c4ccc(C#N)cc4)cc(OC[C@@H]4CCNC4)c4cncn34)ccc21 [Example 14, 4-{5-(4-methyl-3,4-dihydro-2H-1,4-benzoxazin-7-yl)-8-[(3R)-pyrrolidin-3-ylmethoxy]imidazo[1,5-a]pyridin-6-yl}benzonitrile]",≤ 50 nM
11,"CN1CCOc2ccc(-c3c(-c4ccc(C#N)cc4)cc(OC[C@@H]4CCNC4)c4cncn34)cc21 [Example 15, 4-{5-(4-methyl-3,4-dihydro-2H-1,4-benzoxazin-6-yl)-8-[(3R)-pyrrolidin-3-ylmethoxy]imidazo[1,5-a]pyridin-6-yl}benzonitrile]",≤ 50 nM
12,"N#Cc1ccc(-c2cc(OC[C@@H]3CCNC3)c3cncn3c2-c2ccc3c(c2)OCCO3)cc1 [Example 16, 4-{5-(2,3-dihydro-1,4-benzodioxin-6-yl)-8-[(3R)-pyrrolidin-3-ylmethoxy]imidazo[1,5-a]pyridin-6-yl}benzonitrile]",≤ 50 nM
13,"N#Cc1ccc(-c2cc(OC[C@@H]3CCNC3)c3cncn3c2-c2ccc(CCN3CCOCC3)cc2)cc1 [Example 18, 4-{5-[4-(2-morpholin-4-ylethyl)phenyl]-8-[(3R)-pyrrolidin-3-ylmethoxy]imidazo[1,5-a]pyridin-6-yl}benzonitrile]",≤ 50 nM
14,"CN1CCN(Cc2ccc(-c3c(-c4ccc(C#N)cc4)cc(OC[C@@H]4CCNC4)c4cncn34)cc2)CC1 [Example 19, 4-{5-{4-[(4-methylpiperazin-1-yl)methyl]phenyl}-8-[(3R)-pyrrolidin-3-ylmethoxy]imidazo-[1,5-a]pyridin-6-yl}benzonitrile]",≤ 50 nM
15,"Cc1ccc(-c2c(-c3ccc(C#N)cc3)cc(OC[C@@H]3CCN(C)C3)c3cncn23)cc1 [Example 20, 4-(5-(4-methylphenyl)-8-{[(3R)-1-methylpyrrolidin-3-yl]methoxy}imidazo[1,5-a]pyridin-6-yl)benzonitrile]",≤ 50 nM
16,"CN1CCC[C@@H](COc2nc(-c3ccc(C#N)cc3)c(-c3ccc4c(cnn4C)c3)n3cncc23)C1 [Example 23, 4-(5-(1-methyl-1H-indazol-5-yl)-8-{[(3R)-1-methylpiperidin-3-yl]methoxy}imidazo[1,5-a]pyrazin-6-yl)benzonitrile]",≤ 50 nM
17,"CN1CCC[C@@H](COc2nc(-c3ccc(C#N)cc3)c(-c3ccc4c(c3)ncn4C)n3cncc23)C1 [Example 28, 4-(5-(1-methyl-1H-benzimidazol-5-yl)-8-{[(3R)-1-methylpiperidin-3-yl]methoxy}imidazo[1,5-a]pyrazin-6-yl)benzonitrile]",≤ 50 nM
18,"CN1CCC[C@@H](COc2nc(-c3ccc(C#N)cc3)c(-c3cnc4c(c3)OCCN4C)n3cncc23)C1 [Example 29, 4-(5-(4-methyl-3,4-dihydro-2H-pyrido[3,2-b][1,4]oxazin-7-yl)-8-{[(3R)-1-methylpiperidin-3-yl]methoxy}imidazo[1,5-a]pyrazin-6-yl)benzonitrile]",≤ 50 nM
19,"CN1CCC[C@@H](COc2nc(-c3ccc(C#N)cc3)c(-c3cc4oc(=O)n(C)c4cc3F)n3cncc23)C1 [Example 30, 4-(5-(5-fluoro-3-methyl-2-oxo-2,3-dihydro-1,3-benzoxazol-6-yl)-8-{[(3R)-1-methylpiperidin-3-yl]methoxy}imidazo[1,5-a]pyrazin-6-yl)benzonitrile]",≤ 50 nM
20,"CN1CCC[C@@H](COc2nc(-c3ccc(C#N)cc3)c(-c3ccc4scnc4c3)n3cncc23)C1 [Example 34, (R)-4-(5-(benzo[d]thiazol-5-yl)-8-((1-methylpiperidin-3-yl)methoxy)imidazo[1,5-a]pyrazin-6-yl)benzonitrile]",≤ 50 nM
21,"Cc1nc2cc(-c3c(-c4ccc(C#N)cc4)nc(OC[C@@H]4CCCN(C)C4)c4cncn34)ccc2s1 [Example 35, 4-(5-(2-methyl-1,3-benzothiazol-5-yl)-8-{[(3R)-1-methylpiperidin-3-yl]methoxy}imidazo[1,5-a]pyrazin-6-yl)benzonitrile]",≤ 50 nM
22,"CN1CCC[C@@H](COc2nc(-c3ccc(C#N)c(F)c3)c(-c3cnc4c(cnn4C)c3)n3cncc23)C1 [Example 36, 2-fluoro-4-[8-{[(3R)-1-methylpiperidin-3-yl]methoxy}-5-(1-methyl-1H-1-pyrazolo[3,4-b]pyridin-5-yl)imidazo[1,5-a]pyrazin-6-yl]benzonitrile]",≤ 50 nM
23,"Cn1ncc2cc(-c3c(-c4ccc(C#N)cc4)nc(OC[C@@H]4CCCN(CCO)C4)c4cncn34)cnc21 [Example 37, 4-[8-{[(3R)-1-(2-hydroxyethyl)piperidin-3-yl]methoxy}-5-(1-methyl-1H-1-pyrazolo[3,4-b]pyridin-5-yl)imidazo[1,5-a]pyrazin-6-yl]benzonitrile]",≤ 50 nM
24,"Cn1ncc2cc(-c3c(-c4ccc(C#N)cc4)nc(OC[C@@H]4CCCN(CCC#N)C4)c4cncn34)cnc21 [Example 38, 4-[8-{[(3R)-1-(2-cyanoethyl)piperidin-3-yl]methoxy}-5-(1-methyl-1H-1-pyrazolo[3,4-b]pyridin-5-yl)imidazo[1,5-a]pyrazin-6-yl]benzonitrile]",≤ 50 nM
25,"COCCN1CCC[C@@H](COc2nc(-c3ccc(C#N)cc3)c(-c3cnc4c(cnn4C)c3)n3cncc23)C1 [Example 40, 4-[8-{[(3R)-1-(2-methoxyethyl)piperidin-3-yl]methoxy}-5-(1-methyl-1H-pyrazolo[3,4-b]pyridin-5-yl)imidazo[1,5-a]pyrazin-6-yl]benzonitrile]",≤ 50 nM
26,"Cc1ccc(-c2c(-c3ccc(C#N)cc3)nc(OC[C@@H]3CCCN(C)C3)c3cncn23)cc1CO [Example 42, 4-(5-[3-(hydroxymethyl)-4-methylphenyl]-8-{[(3R)-1-methylpiperidin-3-yl]methoxy}imidazo[1,5-a]pyrazin-6-yl)benzonitrile]",≤ 50 nM
27,"COc1ncc(-c2c(-c3ccc(C#N)cc3)nc(OC[C@@H]3CCCN(C)C3)c3cncn23)cc1F [Example 43, 4-(5-(5-fluoro-6-methoxypyridin-3-yl)-8-{[(3R)-1-methylpiperidin-3-yl]methoxy}imidazo[1,5-a]pyrazin-6-yl)benzonitrile]",≤ 50 nM
28,"Cc1cc(-c2c(-c3ccc(C#N)cc3)nc(OC[C@@H]3CCCN(C)C3)c3cncn23)cc(F)c1CO [Example 44, 4-(5-[3-fluoro-4-(hydroxymethyl)-5-methylphenyl]-8-{[(3R)-1-methylpiperidin-3-yl]methoxy}imidazo[1,5-a]pyrazin-6-yl)benzonitrile]",≤ 50 nM
29,"Cc1cc(-c2c(-c3ccc(C#N)cc3)nc(OC[C@@H]3CCCN(C)C3)c3cncn23)ccc1CO [Example 45, 4-(5-[4-(hydroxymethyl)-3-methylphenyl]-8-{[(3R)-1-methylpiperidin-3-yl]methoxy}imidazo[1,5-a]pyrazin-6-yl)benzonitrile]",≤ 50 nM
30,"CN1CCC[C@@H](COc2nc(-c3ccc(C#N)cc3)c(-c3cc(F)c(CO)c(F)c3)n3cncc23)C1 [Example 47, 4-(5-[3,5-difluoro-4-(hydroxymethyl)phenyl]-8-{[(3R)-1-methylpiperidin-3-yl]methoxy}imidazo[1,5-a]pyrazin-6-yl)benzonitrile]",≤ 50 nM

# From US10047086B2, “Imidazopyridines and imidazopyrazines as LSD1 inhibitors” (Incyte Corporation, priority 2014, dated 2018)
